Source: patent US8017401B2, “Method for determining redox activity and screening compounds based on redox activity” (State of Oregon acting by and through the State Board of …, priority 2005, dated 2011)
Read-outs that look alike come from different tables or passages of the source.

Legend:
[1] = Reaction of NBD-Cl with KO2: stopped-flow kinetics, absorbance and fluorescence calibration; format: physicochemical
[2] = biological target: xanthine-xanthine oxidase reaction (Homo sapiens, UniProt P47989); assay: Superoxide measurement in the xanthine-xanthine oxidase reaction; format: biochemical
[3] = Redox activity by reaction with photo-excited dye under aerobic conditions (probe reduction at 470 nm and dye photo-bleaching); format: physicochemical; details: for redox activity (electron donor or electron acceptor): conclusion from the photo-excited dye assay of the respective example
[4] = Redox activity of activators and inhibitors of membrane-bound transport proteins (overview statement); format: physicochemical; details: activators and inhibitors of the sarcoplasmic reticulum calcium release channel; no reference given
[5] = modulators of L-type calcium channel, sodium channel, mitochondrial ATP-dependent potassium channel; references 1-3; cited from earlier work
[6] = test system: sarcoplasmic reticulum Ca^2+ release channel; details: cited from earlier work
[7] = 10 μM erythrosin, 50 μM NBD-Cl, 80% dimethyl sulfoxide / 20% 1 mM Tris-HCl, pH 7.4, compound 200 μM (diethyl benzocaine 2 mM) vs control
[8] = 10 μM methylene blue, 100 μM NADH, 50 μM NBD-Cl, 10 mM Tris-HCl in water, pH 7.4, doxorubicin 25 and 50 μM vs zero

Chain of xanthine-xanthine oxidase reaction (P47989 whole entry): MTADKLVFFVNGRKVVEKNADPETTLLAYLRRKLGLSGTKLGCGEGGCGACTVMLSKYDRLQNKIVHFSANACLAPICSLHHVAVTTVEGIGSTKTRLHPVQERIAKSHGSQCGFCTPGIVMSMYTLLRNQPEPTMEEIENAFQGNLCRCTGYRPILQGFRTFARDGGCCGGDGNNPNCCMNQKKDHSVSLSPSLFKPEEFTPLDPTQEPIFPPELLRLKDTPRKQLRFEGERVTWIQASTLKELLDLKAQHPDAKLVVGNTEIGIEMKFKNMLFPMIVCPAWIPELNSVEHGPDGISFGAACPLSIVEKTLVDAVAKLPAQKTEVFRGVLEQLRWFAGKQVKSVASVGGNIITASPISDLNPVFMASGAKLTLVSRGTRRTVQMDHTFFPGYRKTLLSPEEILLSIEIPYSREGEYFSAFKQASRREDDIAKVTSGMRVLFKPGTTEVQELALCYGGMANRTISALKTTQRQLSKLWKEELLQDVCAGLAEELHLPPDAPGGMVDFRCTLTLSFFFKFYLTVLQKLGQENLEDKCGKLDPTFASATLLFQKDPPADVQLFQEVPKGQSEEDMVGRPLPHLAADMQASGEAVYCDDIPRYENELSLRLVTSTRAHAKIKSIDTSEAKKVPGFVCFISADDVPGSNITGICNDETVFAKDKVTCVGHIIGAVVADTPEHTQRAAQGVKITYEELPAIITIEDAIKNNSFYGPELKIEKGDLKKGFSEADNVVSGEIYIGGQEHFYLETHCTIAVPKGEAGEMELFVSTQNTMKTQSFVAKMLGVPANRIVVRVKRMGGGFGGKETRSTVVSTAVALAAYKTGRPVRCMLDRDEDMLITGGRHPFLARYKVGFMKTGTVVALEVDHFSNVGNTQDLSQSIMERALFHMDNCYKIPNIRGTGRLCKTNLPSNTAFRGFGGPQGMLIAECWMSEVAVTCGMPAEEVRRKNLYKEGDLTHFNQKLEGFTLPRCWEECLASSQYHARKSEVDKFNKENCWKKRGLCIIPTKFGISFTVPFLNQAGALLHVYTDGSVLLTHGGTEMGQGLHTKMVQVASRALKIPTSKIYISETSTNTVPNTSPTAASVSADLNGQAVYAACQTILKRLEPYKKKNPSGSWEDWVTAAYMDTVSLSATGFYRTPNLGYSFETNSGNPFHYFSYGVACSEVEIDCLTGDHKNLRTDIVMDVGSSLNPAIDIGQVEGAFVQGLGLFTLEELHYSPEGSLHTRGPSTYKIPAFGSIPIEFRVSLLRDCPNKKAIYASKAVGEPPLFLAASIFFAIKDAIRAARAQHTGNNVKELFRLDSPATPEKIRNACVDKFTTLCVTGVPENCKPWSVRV

Compound | redox activity (electron donor or electron acceptor) [3] | redox activity (electron donor or electron acceptor) [4] | also measured
2,3-bis(2-methoxy-4-nitro-5-sulphophenyl)-5-[(phenylamino)carbonyl]-2H-tetrazolium hydroxide [XTT] | – | – | second-order rate constants for reduction by superoxide [1]: 8.59±0.81×10^4 M^−1s^−1; effect of the probe on the xanthine-xanthine oxidase reaction rate [2]: about a two-fold increase; Superoxide at 470 nm (initial rate of superoxide formation) ([2]; pH 7.4): 0.225 ± 0.010
COc1cc(-c2ccc(-n3nc(-c4ccccc4)n[n+]3-c3ccc([N+](=O)[O-])cc3)c(OC)c2)ccc1-n1nc(-c2ccccc2)n[n+]1-c1ccc([N+](=O)[O-])cc1 [NBT, nitroblue tetrazolium] | – | – | Superoxide at 550 nm (initial rate of superoxide formation) ([2]; pH 7.4): 0.038 ± 0.002
CC[C@H]1[C@@H]2C[C@H]3[C@@H]4N(C)c5ccccc5[C@]45C[C@@H]([C@@H]2[C@H]5O)N3[C@@H]1O [ajmalin] | electron donors | – | rate of NBD-Cl reduction (increasing absorbance at 470 nm) [3, 7]: increased; relative degree of electron donor activity ([3]; 10 μM erythrosin, 50 μM NBD-Cl, 80% dimethyl sulfoxide, from level of increase of NBD-Cl reduction rate): stronger electron donor than diethyl benzocaine
CC(C)COCC(CN(Cc1ccccc1)c1ccccc1)N1CCCC1 (stereo not shown) [bepridil] | electron donor | – | rate of XTT reduction (increasing absorbance at 470 nm) ([3]; 10 μM eosin, 50 μM XTT, 1 mM Tris-HCl in water, pH 7.4, bepridil 20 and 200 μM vs zero): increased
Cn1c(=O)c2c(ncn2C)n(C)c1=O [caffeine] | – | electron acceptors | –
N[C@@H](CS)C(=O)O [cysteine] | – | electron donors | –
N[C@@H](CSSC[C@H](N)C(=O)O)C(=O)O [cystine] | – | electron acceptors | –
CN(C)C(=O)/N=N/C(=O)N(C)C [diamide] | – | electron acceptors | –
COc1cccc2c1C(=O)c1c(O)c3c(c(O)c1C2=O)C[C@@](O)(C(=O)CO)C[C@@H]3O[C@H]1C[C@H](N)[C@H](O)[C@H](C)O1 [doxorubicin] | electron acceptor | electron acceptors | rate of NBD-Cl reduction (increasing absorbance at 470 nm) [3, 8]: decreased; rate of methylene blue bleaching (decreasing absorbance at 663 nm) [3, 8]: decreased
N[C@@H](CCC(=O)N[C@@H](CS)C(=O)NCC(=O)O)C(=O)O [glutathione] | – | electron donors | –
O=C1c2c(O)ccc(O)c2C(=O)c2c(NCCNCCO)ccc(NCCNCCO)c21 [mitoxantrone] | – | electron acceptors | –
Oc1ccc(-c2[o+]c3cc(O)cc(O)c3cc2O)cc1 [pelargonidine] | – | – | redox activity (electron donor or electron acceptor) [5]: electron acceptor
CCN(CC)CCOC(=O)c1ccc(N)cc1 [procaine] | – | electron donors | –
CCCCNc1ccc(C(=O)OCCN(C)C)cc1 [tetracaine] | electron donors | electron donors | rate of NBD-Cl reduction (increasing absorbance at 470 nm) [3, 7]: increased
diethyl benzocaine | electron donors | – | rate of NBD-Cl reduction (increasing absorbance at 470 nm) [3, 7]: increased; redox activity (electron donor or electron acceptor) [5]: electron donor
ryanodine | – | – | concentrations at which it is a specific activator of the calcium release channel [6]: 1 to 2 µM
